Data: publication PMC12455130, “Multifunctional molecular agent for tau-targeted combinational therapy of Alzheimer’s disease” (The Journal of Biological Chemistry, 2025)

What was measured:
[1] = biological target: T1, R3 fibrils (Homo sapiens, UniProt P10636); test: TEM of heparin-induced R3 fibrils; format: biochemical
T1 construct: R3 (^306VQIVYK PVDLSK VTSKCG SLGNIH HKPGGG Q^336) and rabbit anti-tau antibody were purchased from MuJin; purchased MuJin
Protocol: To further confirm the inhibitory efficiency of 4GA and 2GA on R3 fibril formation, the morphology of heparin-induced R3 aggregates at different conditions was characterized by transmission electron microscopy (TEM) (Fig. 4C). After incubation, the mature fibrils of R3 were interweaved and serried in the absence of 4GA or 2GA (0 μM).
(§1) For detecting the inhibitory efficiency of inhibitors, 15 μM R3, 3.8 μM heparin, and 4GA/2GA/4ME/GA (0, 10, and 40 μM) in 50 mM Tris–HCl buffer (pH 7.4) was incubated at 37 °C for 3 h, respectively. For exploring the effect of Cu^2+ on R3 aggregation, 15 μM R3, 3.8 μM heparin was mixed in the presence or the absence of 3.8 μM Cu^2+ in 50 mM Hepes buffer (pH 7.4). Then, 10 μM 4GA/2GA/4ME/GA was added to the solution. After 3 h incubation, 10 μl of each solution was applied on a carbon support membrane, followed by 10 μl of 2% uranyl acetate, and dried at room temperature. The operation was carried out on transmission electron microscope (JEM-2100, provieded by JEOL).

[2] = biological target: T2, tau peptide R3 (Homo sapiens, UniProt P10636); test: ThS assay, Cu2+-promoted heparin-induced R3 aggregation; format: biochemical; settings: R3 15 μM, Cu2+ 3.8 μM, compound 10 μM, heparin 3.8 μM, 3 h
T2 construct: R3 (^306VQIVYK PVDLSK VTSKCG SLGNIH HKPGGG Q^336) and rabbit anti-tau antibody were purchased from MuJin; purchased MuJin
Excerpt: Metal ions, especially Cu^2+, are believed to be highly compatible with cysteine residues of tau peptide as a coordination center ([26]). Accompanied by the formation of intermolecular S–Cu–S bridging coordination bond, or intermolecular disulfide bond, these metal ions have been proven to promote tau aggregation ([27]). After confirming that 4GA and 2GA can effectively remove copper ions through coordination, we further explore their effects on R3 aggregation under the promotion of Cu^2+. […] Heparin was used to initiate the aggregation ([15]). […] As a comparison, the effects of the precursor compounds: 4ME, 3ME, 2ME, and 1ME, on Cu^2+-promoted R3 aggregation were also examined (Fig. S15).
Figure 5 Kinetic curves and TEM image of R3 aggregation with 4GA or 2GA.A, kinetic curves of the R3 (15 μM) aggregation monitored by ThS fluorescence assay in different conditions. B, ThS fluorescence intensity of R3 (15 μM) incubated for 3 h in different conditions. C, TEM image of R3 fibrils in different conditions. Negatively stained with uranyl acetate. Scale bar represents 200 nm. Final concentrations of R3, Cu^2+, and inhibitors are 15, 3.8, and 10 μM, respectively. All aggregations were initiated by heparin (3.8 μM). 2GA, (4,10-dimethyl-1,4,7,10-tetraazacyclododecane-1,7-diyl)bis((3,4,5-trihydroxyphenyl)methanone); 4GA, (1,4,7,10-tetraazacyclododecane-1,4,7,10-tetrayl)tetrakis((3,4,5-trihydroxyphenyl)methanone); TEM, transmission electron microscopy; ThS, thioflavin S.
The promotion of Cu^2+ on R3 aggregation was also inspected, similar to the aforementioned operation, unless that 3.8 μM Cu^2+ was also included, and using 50 mM Hepes (pH 7.4) as the buffer solution.
Fig. S15 ThS fluorescence intensity of R3 (15 µM) incubated for 3 h. Final concentrations of R3, Cu^2+, and compounds are 15, 3.8 and 10 µM, respectively. All aggregations were initiated by heparin (3.8 µM).

[3] = biological target: T1, R3 fibrils; test: TEM of Cu2+-promoted R3 fibrils; format: biochemical; settings: R3 15 μM, Cu2+ 3.8 μM, heparin 3.8 μM, compound 10 μM, Hepes pH 7.4
Protocol: However, the influence of 4ME or GA on Cu^2+-promoted R3 aggregation was small, because these compounds could only suppress Cu^2+ promotion effect; their effect on R3 self-aggregation was almost negligible.
as §1

[4] = tested on: tau-infected SK-N-SH cells; test: Immunofluorescence / ThS staining of intracellular tau aggregation; format: cell-based, human; settings: 1.5 μM R3 aggregates, 10 μM inhibitor; for fluorescence intensity of ThS against the control group: ImageJ
Protocol: The red fluorescence of antitau antibody (Cy3-AB) staining marked for Pan Tau protein. […] Finally, the fluorescence intensity was quantitatively analyzed via ImageJ (National Institutes of Health).
Figure 8 Confocal laser scanning microscopy images of SK-N-SH cells incubated with R3 aggregates and different inhibitors. 2-(4-Amidinophenyl)-6-indolecarbamidine dihydrochloride (DAPI) for nuclei staining (blue); Thioflavin S (ThS) for aggregated Tau protein (green); Cy3 marked anti-Tau antibody (Cy3-AB) for Pan Tau protein (all conformations of Tau) (red). Concentrations of R3 aggregates and inhibitors are 1.5 μM and 10 μM, respectively. Scale bar represents 25 μm.
Tau-infected pathological model cell lines were constructed by human neuroblastoma SK-N-SH cells using R3 aggregates as inducer, referring our earlier article ([28]). R3 aggregates were obtained from coincubation of 15 μM R3 peptide with 3.8 μM heparin in PBS at 37 °C for 4 h. Then, the solution was diluted to 1.5 μM in the culture medium. SK-N-SH cells were seeded onto 24-well plates (1 × 10^5/well) for 24 h. Then, 10 μM of different compounds (inhibitors) per well was added and incubated for 2 h. After changing the culture medium, these cells were treated with 1.5 μM R3 aggregates for 12 h and then further continued incubation for 12 h.
The samples were successively treated with 4% paraformaldehyde and 0.1% Triton X-100 for 15 min each and washed three times with PBS. Blocked with 5% goat serum for 30 min, the samples were incubated with rabbit anti-Tau antibody (1:200 dilution) at 4 °C for 24 h and washed three times with PBS. Then they were incubated with Cy3-conjugated Donkey Anti-Rabbit IgG (1:1000 dilution) at 37 °C for 1 h and washed three times with PBS. Subsequently, 60 μM ThS was added to stain tau aggregates for 15 min and washed three times with PBS. Finally, cells were stained with 2-(4-amidinophenyl)-6-indolecarbamidine dihydrochloride (0.02%) for 5 min to staining nuclei and washed three times with PBS. The antifade mounting medium was used for cell slides to ensure fluorescence. The fluorescence signals were monitored using a CLSM (Leica TCS SP8).
Fig. S16 Quantitatively analysis of the fluorescence intensity in the Confocal laser scanning microscopy images ([…]) of SK-N-SH cells incubated with R3, heparin and different inhibitors by ImageJ software. Florescence intensity per cell (n = 8), analyzed by ImageJ software.

T2 sequence (P10636 623-653 limits assumed): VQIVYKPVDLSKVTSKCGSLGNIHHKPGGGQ
T1 sequence (P10636 623-653 limits assumed): as above

Row | SMILES | R3 fibril morphology (TEM) ([1]; 10 μM inhibitor) | ThS fluorescence intensity of R3 aggregation in the presence of Cu2+ [2] | morphology of Cu2+-promoted R3 fibrils (TEM) [3] | intracellular tau aggregation (ThS green fluorescence, CLSM) [4] | fluorescence intensity of ThS against the control group [4] [%] | R3 fibril morphology (TEM) ([1]; even at high concentrations)
1 | O=C(c1cc(O)c(O)c(O)c1)N1CCN(C(=O)c2cc(O)c(O)c(O)c2)CCN(C(=O)c2cc(O)c(O)c(O)c2)CCN(C(=O)c2cc(O)c(O)c(O)c2)CC1 [4GA, (1,4,7,10-tetraazacyclododecane-1,4,7,10-tetrayl)tetrakis((3,4,5-trihydroxyphenyl)methanone)] | smaller numbers of short R3 filaments | dropped dramatically, to a level lower than the case of R3 aggregation in the absence of Cu^2+ | the resulting filaments become sparse and small | the green fluorescence disappeared | 3.3 | 
2 | O=C(O)c1cc(O)c(O)c(O)c1 [GA, gallic acid, reference compound] |  |  | small | slight inhibitory efficiency |  | could hardly change the number and length of R3 fibrils
3 | CN1CCN(C)CCN(C)CCN(C)CC1 [4ME, 1,4,7,10-tetramethyl-1,4,7,10-tetraazacyclododecane, reference compound] |  | only to a level close to the case of R3 aggregation in the absence of Cu^2+ | small | slight inhibitory efficiency |  | 
4 | CN1CCN(C(=O)c2cc(O)c(O)c(O)c2)CCN(C)CCN(C(=O)c2cc(O)c(O)c(O)c2)CC1 [2GA, (4,10-dimethyl-1,4,7,10-tetraazacyclododecane-1,7-diyl)bis((3,4,5-trihydroxyphenyl)methanone)] | smaller numbers of short R3 filaments | dropped dramatically, to a level lower than the case of R3 aggregation in the absence of Cu^2+ | the resulting filaments become sparse and small | the green fluorescence disappeared | 4.6 | 
